Results: patent publication US7704995B2 (Exelixis, Inc., priority 2003, dated 2010)
pIC50: −log10 of the molar value. Like-named read-outs stand apart in the source and are kept apart here.

Target: T1, Chk1 (Homo sapiens, UniProt O14757)
T1 construct: purchased Upstate Biotechnology
T1 sequence (O14757 1-476): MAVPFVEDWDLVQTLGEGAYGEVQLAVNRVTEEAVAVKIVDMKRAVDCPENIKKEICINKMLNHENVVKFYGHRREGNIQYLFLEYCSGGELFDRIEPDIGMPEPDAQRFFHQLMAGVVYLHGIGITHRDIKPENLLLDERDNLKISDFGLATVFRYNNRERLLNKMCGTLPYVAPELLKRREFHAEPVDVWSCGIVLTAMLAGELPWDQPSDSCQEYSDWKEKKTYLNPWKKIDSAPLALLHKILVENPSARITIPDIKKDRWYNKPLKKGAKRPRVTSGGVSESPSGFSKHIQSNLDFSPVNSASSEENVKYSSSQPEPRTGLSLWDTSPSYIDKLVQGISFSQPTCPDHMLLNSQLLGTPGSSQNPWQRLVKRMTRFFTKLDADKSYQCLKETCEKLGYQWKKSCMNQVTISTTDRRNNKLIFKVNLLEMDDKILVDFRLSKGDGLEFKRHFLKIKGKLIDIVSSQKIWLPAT
Assay: Chk1 kinase assay: incorporation of γ-33P ATP into immobilized myelin basic protein
Format: biochemical
Details: read-out: Chk1 IC50
In short: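 Plates coated with MBP, then kinase reactions in Hepes pH 7.6 buffer with 10 mM MgCl2 and 1% DMSO were started by adding unlabeled plus γ-33P ATP (10 μM for Chk1 at 10 nM enzyme; 30 μM for Chk2 at 20 nM enzyme). After 1 h at room temperature, plates were washed and counted.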

[1] = Table 11, Chk1 only, class symbols A-D

Row | pIC50 [1] | pIC50 | SMILES | further results
1 | > 7.30 | – | Nc1ncc(-c2cccc(C(=O)NCc3ccc(Cl)c(C(F)(F)F)c3)c2)nc1C(=O)N[C@H]1CCCNC1 [Example 1005, 3-amino-6-{3-[({[4-chloro-3-(trifluoromethyl)phenyl]methyl}amino)carbonyl]phenyl}-N-[(3S)-piperidin-3-yl]pyrazine-2-carboxamide] | –
2 | – | – | CNC(=O)c1nc(-c2cccc(CNC3CCc4cc(-c5ccccc5)ccc43)c2)cnc1N (stereo not shown) [Example 491, 3-amino-N-methyl-6-(3-{[(5-phenyl-2,3-dihydro-1H-inden-1-yl)amino]methyl}phenyl)pyrazine-2-carboxamide] | pIC50 (Table 11, Chk1 only): 6.00 to 7.30
3 | – | – | Nc1ncc(-c2cccc(CO)c2)nc1-c1nc(C2CCCNC2)n[nH]1 (stereo not shown) [Example 625, {3-[5-amino-6-(3-piperidin-3-yl-1H-1,2,4-triazol-5-yl)pyrazin-2-yl]phenyl}methanol] | pIC50 (Table 11, Chk1 only): 6.00 to 7.30
4 | 6.00 to 7.30 | – | Nc1ncc(-c2cccc(CNC(=O)Nc3ccccc3OC(F)(F)F)c2)nc1C(=O)N[C@H]1CCCNC1 [Example 919, 3-amino-N-[(3S)-piperidin-3-yl]-6-[3-({[({2-[(trifluoromethyl)oxy]phenyl}amino)carbonyl]amino}methyl)phenyl]pyrazine-2-carboxamide] | –
5 | > 7.30 | – | Cc1ccccc1CC(=O)Nc1cccc(-c2cnc(N)c(C(=O)N[C@H]3CCCNC3)n2)c1 [Example 975, 3-amino-6-(3-{[(2-methylphenyl)acetyl]amino}phenyl)-N-[(3S)-piperidin-3-yl]pyrazine-2-carboxamide] | –
6 | > 7.30 | – | Nc1ncc(-c2cccc(CNC(=O)Nc3ccc(C(F)(F)F)cc3)c2)nc1C(=O)N[C@H]1CCCNC1 [Example 931, 3-amino-N-[(3S)-piperidin-3-yl]-6-(3-{[({[4-(trifluoromethyl)phenyl]amino}carbonyl)amino]methyl}phenyl)pyrazine-2-carboxamide] | –
7 | – | 6.00 to 7.30 | CNC(=O)c1nc(-c2cccc(CNCc3c(OC)cccc3OC)c2)cnc1N [Example 398, 3-amino-6-{3-[({[2,6-bis(methyloxy)phenyl]methyl}amino)methyl]phenyl}-N-methylpyrazine-2-carboxamide] | –
8 | – | 6.00 to 7.30 | CNC(=O)c1nc(-c2cccc(C(=O)NCc3ccc(Oc4ccccc4)cc3)c2)cnc1N [Example 184, 3-amino-N-methyl-6-{3-[({[4-(phenyloxy)phenyl]methyl}amino)carbonyl]phenyl}pyrazine-2-carboxamide] | –
9 | > 7.30 | – | Nc1ncc(-c2cccc(C(=O)NCc3ccc(F)c(F)c3)c2)nc1-c1nc([C@H]2CCCNC2)n[nH]1 [Example 867, 3-(5-amino-6-{3-[(3S)-piperidin-3-yl]-1H-1,2,4-triazol-5-yl}pyrazin-2-yl)-N-[(3,4-difluorophenyl)methyl]benzamide] | –
10 | > 7.30 | – | Nc1ncc(-c2cccc(C(=O)NCCN3CCCCC3)c2)nc1C(=O)N[C@H]1CCCNC1 [Example 877, 3-amino-N-[(3S)-piperidin-3-yl]-6-(3-{[(2-piperidin-1-ylethyl)amino]carbonyl}phenyl)pyrazine-2-carboxamide] | –
11 | – | – | Nc1ncc(-c2cccc(CN[C@H]3CCc4ccccc43)c2)nc1C(=O)NC1CC1 [Example 548, 3-amino-N-cyclopropyl-6-(3-{[(1S)-2,3-dihydro-1H-inden-1-ylamino]methyl}phenyl)pyrazine-2-carboxamide] | pIC50 (Table 11, Chk1 only): 6.00 to 7.30
12 | – | 6.00 to 7.30 | CNC(=O)c1nc(-c2cccc(CNC(=O)c3cc4ccccc4[nH]3)c2)cnc1N [Example 334, N-[(3-{5-amino-6-[(methylamino)carbonyl]pyrazin-2-yl}phenyl)methyl]-1H-indole-2-carboxamide] | –
13 | – | – | COC(=O)CNC(=O)c1nc(-c2cccc(C(=O)NCc3ccccc3)c2)cnc1N [Example 576, methyl N-{[3-amino-6-(3-{[(phenylmethyl)amino]carbonyl}phenyl)pyrazin-2-yl]carbonyl}glycinate] | pIC50 (Table 11, Chk1 only): 5.00 to 6.00
14 | > 7.30 | – | Nc1ncc(-c2cccc(CNC(=O)Nc3ccc(-c4ccccc4)cc3)c2)nc1C(=O)N[C@H]1CCCNC1 [Example 908, 3-amino-6-[3-({[(biphenyl-4-ylamino)carbonyl]amino}methyl)phenyl]-N-[(3S)-piperidin-3-yl]pyrazine-2-carboxamide] | –
15 | – | 6.00 to 7.30 | CNC(=O)c1nc(-c2cccc(C(=O)NCc3ccc(F)c(C(F)(F)F)c3)c2)cnc1N [Example 228, 3-amino-6-{3-[({[4-fluoro-3-(trifluoromethyl)phenyl]methyl}amino)carbonyl]phenyl}-N-methylpyrazine-2-carboxamide] | –
16 | – | 6.00 to 7.30 | CNC(=O)c1nc(-c2cccc(C(=O)NCc3cc(F)ccc3C)c2)cnc1N [Example 287, 3-amino-6-[3-({[(5-fluoro-2-methylphenyl)methyl]amino}carbonyl)phenyl]-N-methylpyrazine-2-carboxamide] | –
17 | > 7.30 | – | Nc1ncc(-c2cccc(OCCN3CCN(C(=O)OCc4ccccc4)CC3)c2)nc1C(=O)N[C@H]1CCCNC1 [Example 965, phenylmethyl 4-(2-{[3-(5-amino-6-{[(3S)-piperidin-3-ylamino]carbonyl}pyrazin-2-yl)phenyl]oxy}ethyl)piperazine-1-carboxylate] | –
18 | – | 6.00 to 7.30 | CNC(=O)c1nc(-c2cccc(C(=O)NCc3cc(Br)ccc3F)c2)cnc1N [Example 256, 3-amino-6-[3-({[(5-bromo-2-fluorophenyl)methyl]amino}carbonyl)phenyl]-N-methylpyrazine-2-carboxamide] | –
19 | > 7.30 | – | Nc1ncc(-c2cccc(CNC(=O)Nc3ccc4c(c3)OCCO4)c2)nc1C(=O)N[C@H]1CCCNC1 [Example 935, 3-amino-6-[3-({[(2,3-dihydro-1,4-benzodioxin-6-ylamino)carbonyl]amino}methyl)phenyl]-N-[(3S)-piperidin-3-yl]pyrazine-2-carboxamide] | –
20 | – | 6.00 to 7.30 | CNC(=O)c1nc(-c2cccc(C(=O)NCc3ccccc3C(F)(F)F)c2)cnc1N [Example 109, 3-amino-N-methyl-6-{3-[({[2-(trifluoromethyl)phenyl]methyl}amino)carbonyl]phenyl}pyrazine-2-carboxamide] | –
21 | – | – | Nc1ncc(-c2cccc(C(=O)NCc3ccccc3)c2)nc1C(=O)N[C@H]1CCN(C[C@H]2CCCN2)C1 [Example 689, 3-amino-6-(3-{[(phenylmethyl)amino]carbonyl}phenyl)-N-{(3S)-1-[(2R)-pyrrolidin-2-ylmethyl]pyrrolidin-3-yl}pyrazine-2-carboxamide] | pIC50 (Table 11, Chk1 only): 5.00 to 6.00
22 | – | 6.00 to 7.30 | CNC(=O)c1nc(-c2cccc(C(=O)NCc3cccc(Cl)c3Cl)c2)cnc1N [Example 274, 3-amino-6-[3-({[(2,3-dichlorophenyl)methyl]amino}carbonyl)phenyl]-N-methylpyrazine-2-carboxamide] | –
23 | – | – | CNC(=O)c1nc(-c2cccc(CNC3CCCC3)c2)cnc1N [Example 500, 3-amino-6-{3-[(cyclopentylamino)methyl]phenyl}-N-methylpyrazine-2-carboxamide] | pIC50 (Table 11, Chk1 only): 6.00 to 7.30
24 | – | – | Cc1noc(C)c1NC(=O)NCCCNC(=O)c1nc(-c2cccc(C(=O)NCc3ccccc3)c2)cnc1N [Example 655, 3-amino-N-[3-({[(3,5-dimethylisoxazol-4-yl)amino]carbonyl}amino)propyl]-6-(3-{[(phenylmethyl)amino]carbonyl}phenyl)pyrazine-2-carboxamide] | pIC50 (Table 11, Chk1 only): 5.00 to 6.00
25 | > 7.30 | – | Nc1ncc(-c2cccc(CNC(=O)c3ccc(Br)cc3)c2)nc1C(=O)N[C@H]1CCCNC1 [Example 892, 3-amino-6-[3-({[(4-bromophenyl)carbonyl]amino}methyl)phenyl]-N-[(3S)-piperidin-3-yl]pyrazine-2-carboxamide] | –
